Source: BindingDB's records for PubMed 39651809 (Pfizer Inc.)

test: Inhibition of SLP76 phosphorylation at Ser376 in human Jurkat cells incubated for 30 mins by HTRF assay

| SMILES | IC50 [nM] |
| --- | --- |
| CC(C)n1cnnc1-c1cccc(NC(=O)c2cccc3c2OCC(N)C3)n1 (stereo not drawn) | 1080 |
| CC(C)n1cnnc1-c1cccc(NC(=O)c2cccc3c2nc(CN)n3C)n1 | 1070 |
| CCC(C)n1cnnc1-c1cccc(NC(=O)c2cccc3c2OCC(N)C3)n1 (stereo not drawn) | 222 |
| CC[C@H](C)n1cnnc1-c1cccc(NC(=O)c2cccc3c2nc(CN)n3C)n1 | 139 |
| CNCc1cc(OC)cc2c1CN(c1cccc(-c3nncn3C(C)C)n1)C2=O | 383 |
| CNCc1cc(OC)cc2c1CN(c1cccc(-c3nncn3[C@@H](C)CC(F)(F)F)n1)C2=O | 115 |
| COc1ccc2c(c1CN)CN(c1cccc(-c3nncn3[C@@H](C)CC(F)(F)F)n1)C2=O | 520 |
| CNCc1nc(N(C)C)cc2c1CN(c1cccc(-c3nncn3C(C)C)n1)C2=O [US11142525, Example 1] | 112 |

More lines, now with the values ahead:

| IC50 [nM] | SMILES |
| --- | --- |
| 70 | CNCc1nc(N(C)C)cc2c1CN(c1cccc(-c3nncn3[C@@H](C)CC(F)(F)F)n1)C2=O [US11142525, Example 17] |
| 121 | CCCn1cnnc1-c1cccc(N2Cc3c(cc(N(C)C)nc3CNC)C2=O)n1 [US11142525, Example 46] |
| 34 | CCCn1cnnc1-c1cccc(N2Cc3c(cc(N4CCC[C@H]4C)nc3CNC)C2=O)n1 [US11142525, Example 55] |
| 87 | CCCn1cnnc1-c1cccc(N2Cc3c(cc(N(C)C(C)C)nc3CNC)C2=O)n1 [US11142525, Example 63] |
| 81 | CCCn1c(C)nnc1-c1cccc(N2Cc3c(cc(N(C)C(C)C)nc3CNC)C2=O)n1 [US11142525, Example 64] |
| 53 | C[C@@H]1CCCN1c1cc2c(c([C@@H](C)N)n1)CN(c1cccc(-c3nnc4n3[C@@H](C)CC4)n1)C2=O [US11684616, Example 24] |
| 53 | CC[C@@H](N)c1nc(N2CCC[C@H]2C)cc2c1CN(c1cccc(-c3nncn3CC)n1)C2=O [US11684616, Example 140] |
| 37 | CC[C@H]1CCc2nnc(-c3cccc(N4Cc5c(cc(N(C)C(C)C)nc5CNC)C4=O)n3)n21 [US11684616, Example 201] |
| 52 | CNCc1nc(N(C)C(C)C)cc2c1CN(c1cccc(-c3nnc4n3[C@@H](CF)CC4)n1)C2=O [US11684616, Example 205] |
| 47 | CNCc1nc(N(C)C(C)C)cc2c1CN(c1cccc(-c3nnc4n3[C@@H](C)CC4)n1)C2=O [US11684616, Example 210] |
